Reference: US20060159676A1, “Methods for modulating angiogenesis, lymphangiogenesis, and apoptosis with apelin compositions” (priority 2005, published 2006)

Columns and labels:
[1] = system: BAE/APJ#2 cells; conditions: 10 ng/ml in bottom chamber, 16 hours
Experimental: Bovine aortic endothelial cells (BAE) were cultured in DMEM supplemented with 10% fetal bovine serum (FBS) and penicillin/streptomycin. For generation of stable cell lines expressing APJ, the mouse APJ coding region was cloned into the pcDNA 3.1 vector downstream of the CMV promoter, in frame with a myc epitope at the C-terminal end of the protein, and upstream of the neomycin gene. Bovine aortic endothelial (BAE) cells were transfected with this construction using the Superfect transfection kit (Qiagen) and selected for resistance to G418 (600 μg/ml). Colonies were isolated and screened using RT-PCR for expression of mouse APJ and also by immunocytochemistry for expression of the myc epitope.
Cell migration assays were performed using Transwell cell culture migration chambers (Becton Dickinson) with 8 micron pore size. BAE/APJ#2 cells were plated in serum free conditions in 100 μl at a concentration of 1×10^5 ml in the upper chamber of the migration chamber. Following cell attachment to the membrane, 10 ng/ml of growth factor was added to the bottom chamber, in a total volume of 0.5 ml. […] Cells attached to the membrane in the lower chamber were stained with DAPI, and 3 random fields were counted for each experimental condition.

[2] = system: lymphatic vessels; experiment: In vivo lymphatic vessel branching assay, quail CAM; conditions: collagen disk with 50 ng apelin or 100 ng VEGF-C on CAM of 7 day quail embryos, 18 hours
Experimental: All experiments were carried out using chorioallantoic membranes (CAMs) of quail embryos. Quail embryos used for the lymphatic experiments were 7 days old. Collagen purified from rat tails (Bernanke and Markwald, 1982) was polymerized in 2 mm disks at a final concentration of approximately 1.6 mg/ml in standard phosphate buffered saline (PBS). The total volume of the collagen disk was approximately 10 μl. For experimental treatments, the collagen disks were supplemented with either 50 ng of apelin peptide or 100 ng of VEGF-C protein prior to polymerization at 37° C. for 30 minutes. The VEGF-C was a positive control for these experiments. (Recombinant Human VEGF-C (Cys156Ser), R&D Systems, cat # 752-vc). Apelin peptide was synthesized by Sigma-Genosys (>90% purity).
For lymphangiogenesis assays, the CAMs of 7 day quail embryos were exposed, in ovo, and the collagen disks were placed directly onto the surface of the CAM. […]
The samples were incubated with primary antibody (Prox1, Research Diagnostics, cat # RDI-102PA30, diluted to 2 μg/ml final concentration) for 4 hours at room temperature or overnight at 4° C. […] Both the lymphatic cell number as well as the number of lymphatic branches were determined.
Both blood vessels and lymphatic vessels were stained with the QH-1 antibody. […] The number of lymphatic vessels branching away from blood vessels (towards the collagen disk) were counted. […]

[3] = system: bEnd3 cells; conditions: apelin 10 ng/ml in bottom chamber; VEGF 50 ng/ml as comparison
Experimental: Cell migration assays were performed using the bEnd3 cells in Transwell cell culture migration chambers (FIG. 20). The cells were plated in serum free medium in the upper chamber of the migration chamber. […] The cells that migrated to the bottom chamber were visualized by DAPI stain of the nuclei of the cells (Panels A, B, and C).

[4] = system: endothelial cells; conditions: apelin 10 ng/ml, after 48 hours serum starvation; VEGF 50 ng/ml as comparison
Experimental: To determine what effect, if any, apelin expression has on apoptosis, TUNEL assays were performed. […] Cells were stained with a DAPI stain (FIG. 21, Panels A, B, and C) or in the TUNEL assay which stains for broken DNA, indicating cells undergoing apoptosis (FIG. 21, Panels D, E, and F).

[5] = system: CAM blood vessels; experiment: Chick chorioallantoic membrane (CAM) assay; format: in vivo, chicken; conditions: 50 ng on filter disc, three days, vs PBS
Experimental: Chicken eggs were incubated at 37° C. in a humidified chamber. On day 10 of development, a small window was made in the outer shell of the egg, and the CAM was released from its attachment to the inner shell membrane. A larger window was then made in the egg to allow for addition of the filter paper containing growth factor. Filter discs (3 MM Whatman) of 7-8 mm diameter were pretreated with 10 μl of 0.1% cortisone acetate (Sigma) solution to avoid inflammation of the CAM. The filter discs were air dried prior to application of growth factors. […] After air-drying, the filter discs were placed on the CAM, and eggs were returned to the incubator for three days. Filter discs and the attached CAM were then excised, washed with PBS, trimmed to the size of the disc, and photographed for quantitative analysis (FIGS. 7A and 7B). The number of vessel branch points was determined using a blind protocol. The results are shown as the mean of three independent experiments ±s.e.m. (FIG. 7C).

For Apelin-13, which “endothelial cell migration (cells per field)” value [1] is on record?
Its value is “promotes endothelial cell migration”.

What about the “number of lymphatic vessels branching away from blood vessels” value [2] of the same substance?
Its value is “positive regulator of lymphatic branching angiogenesis”.

And the “endothelial cell migration (chemotaxis)” value [3]?
The value was “acts as chemotactic agent for the endothelial cells to the same extent as VEGF”.

And the “apoptosis (TUNEL staining)” value [4]?
The value was “anti-apoptotic effect on endothelial cells, to the same extent as VEGF”.

What about the blood vessel formation [5] of the same substance?
Its blood vessel formation is “increased”.

And the “leakage of blood vessels” value [5]?
The value was “increased”.
